Laboratory results as given in patent publication US12427134B2, “Methods of reducing the risk of cardiovascular events in a subject with atrial fibrillation and/or atrial flutter” (priority 2019, dated 2025).

Test system: hypertriglyceridemic patients with cardiovascular disease or at high risk for cardiovascular disease
Test: REDUCE-IT: total (first and subsequent/recurrent) ischemic events analyses (negative binomial, Andersen-Gill, Wei-Lin-Weissfeld, joint frailty)
Format: in vivo, human
Conditions: for Cardiovascular Death, HR (95% CI) / Non-fatal Cardiovascular Event, HR (95% CI): joint frailty model; for Key secondary composite endpoint, HR (95% CI) / Primary composite endpoint, HR (95% CI): modified WLW
Method: The primary outcome for the study was total recurrent events consisting of the composite of cardiovascular death, nonfatal myocardial infarction, nonfatal stroke, coronary revascularization, or hospitalization for unstable angina. Recurrent event analyses were also performed for the key secondary endpoint, a composite of cardiovascular death, non fatal myocardial infarction, or non-fatal stroke. For each of these composite endpoints, the effects of icosapent ethyl in the secondary and primary prevention strata were examined separately.
Demographic and baseline disease characteristics are presented using frequencies and percentages for categorical variables and medians with interquartile ranges for continuous variables. Between treatment group comparisons were derived using the chi-square test for categorical variables and Wilcoxon rank test for continuous variables. All clinical endpoint events used in the efficacy analyses were adjudicated by an independent Clinical Endpoint Committee (CEC) who were blinded to the treatment assignment. Since the primary efficacy endpoint was the time from randomization to the first occurrence of any component of the composite endpoint, and recurrence of such events within each patient is possible, a pre-specified analysis using a Cox proportional-hazard with the counting-process formulation of Andersen and Gill was performed to model the first and all recurrent cardiovascular events. Hazard ratios (HR) and corresponding 95% confidence intervals (CI) are reported from this model. In addition, as a marginal model and an extension of survival models based on the Cox proportional hazard model, the modified Wei-Lin-Weissfeld (WLW) method for analysis of recurrent events in the presence of deaths was carried out as a supportive analysis. In addition, as pre-specified, a recurrent event analysis using the Andersen-Gill and Wei-Lin-Weissfeld methods were carried out for the individual primary event components other than CV death. Though not pre-specified, additional recurrent event analyses were performed for the key secondary endpoint, which is a composite of CV death, non-fatal MI, or non-fatal stroke, and for the primary endpoint and the key secondary endpoint in the primary and secondary prevention strata to explore further the consistency of clinical benefit of icosapent ethyl. In subgroup analyses of the two cardiovascular risk strata (i.e., primary and secondary prevention), site-level discrepancies in cardiovascular risk group assignment occurring at entry and detected during the study (1.8%) were adjusted to conform with documented medical history data prior to randomization. All efficacy analyses were performed according to the intention-to-treat principle. All tests were based on a 2-sided nominal significance level of 5% with no adjustments for multiple comparisons.
The following study was a multi-center, placebo-controlled clinical trial the details of which are described above in Example 1, the REDUCE-IT design. […] The main outcomes were total primary composite endpoint events defined as cardiovascular death, nonfatal myocardial infarction, nonfatal stroke, coronary revascularization, or hospitalization for unstable angina and total key secondary composite endpoint events defined as cardiovascular death, nonfatal myocardial infarction, or nonfatal stroke. In the context of this study, total events refer to any first event as well as any subsequent event. Differences in total events were determined using other statistical models, including Andersen-Gill, Wei-Lin-Weisfeld (Li and Lagakos), both pre-specified, and a post hoc and joint-frailty analysis.
For the present prespecified analysis, the primary outcome was the total of first plus subsequent ischemic events consisting of the composite of cardiovascular death, nonfatal myocardial infarction, nonfatal stroke, coronary revascularization, or hospitalization for unstable angina. […]

[1] = Andersen-Gill (I), adjusted, full dataset
[2] = Andersen-Gill (I), adjusted, reduced dataset
[3] = Andersen-Gill (I), unadjusted, full dataset
[4] = Andersen-Gill (I), unadjusted, reduced dataset
[5] = Andersen-Gill (II), adjusted, full dataset
[6] = Andersen-Gill (II), adjusted, reduced dataset
[7] = Andersen-Gill (II), unadjusted, full dataset
[8] = Andersen-Gill (II), unadjusted, reduced dataset
[9] = as summarised in the Example 6 conclusion
[10] = including same-day recurrent events, ITT, denominator total number of events in category
[11] = key secondary endpoint, adjusted, reduced dataset
[12] = key secondary endpoint, unadjusted, reduced dataset
[13] = primary endpoint, adjusted, reduced dataset
[14] = primary endpoint, unadjusted, reduced dataset
[15] = first event, adjusted, full dataset
[16] = first event, adjusted, reduced dataset
[17] = first event, unadjusted, full dataset
[18] = first event, unadjusted, reduced dataset
[19] = second event, adjusted, full dataset
[20] = second event, adjusted, reduced dataset
[21] = second event, unadjusted, full dataset
[22] = second event, unadjusted, reduced dataset
[23] = third event, adjusted, full dataset
[24] = third event, adjusted, reduced dataset
[25] = third event, unadjusted, full dataset
[26] = third event, unadjusted, reduced dataset
[27] = negative binomial, adjusted, full dataset
[28] = negative binomial, adjusted, reduced dataset
[29] = negative binomial, unadjusted, full dataset
[30] = negative binomial, unadjusted, reduced dataset
[31] = per 100 patients treated for five years
[32] = per 1000 patients treated for five years
[33] = primary composite endpoint, after reduction, share of overall events in category
[34] = total events including same-day recurrent events, ITT, denominator total number of events in category

## CC/C=C\C/C=C\C/C=C\C/C=C\C/C=C\CCCC(=O)OCC [AMR101, eicosapentaenoic acid ethyl ester]
[1]
  Total key secondary composite endpoint events, HR (95% CI): 0.71
  Total primary composite endpoint events, HR (95% CI): 0.68
[2]
  Total key secondary composite endpoint events, HR (95% CI): 0.72
  Total primary composite endpoint events, HR (95% CI): 0.69
[3]
  Total key secondary composite endpoint events, HR (95% CI): 0.71
  Total primary composite endpoint events, HR (95% CI): 0.68
[4]
  Total key secondary composite endpoint events, HR (95% CI): 0.72
  Total primary composite endpoint events, HR (95% CI): 0.69
[5]
  Total key secondary composite endpoint events, HR (95% CI): 0.71
  Total primary composite endpoint events, HR (95% CI): 0.68
[6]
  Total key secondary composite endpoint events, HR (95% CI): 0.72
  Total primary composite endpoint events, HR (95% CI): 0.69
[7]
  Total key secondary composite endpoint events, HR (95% CI): 0.71
  Total primary composite endpoint events, HR (95% CI): 0.68
[8]
  Total key secondary composite endpoint events, HR (95% CI): 0.72
  Total primary composite endpoint events, HR (95% CI): 0.69
Example 2, overall, 861 with placebo
  Total key secondary endpoints, number of events: 590
Example 3
  Total key secondary endpoint events, rate ratio: 0.72
[9]
  Total key secondary endpoint events, rate ratio: 0.71
  Total primary endpoint events, rate ratio: 0.69
[10]
  Key Secondary Endpoint Events: Others, %: (52.9) %
  Key Secondary Endpoint Events: ≥1 event, %: (43.1) %
  Key Secondary Endpoint Events: ≥2 events, %: (37.9) %
  Key Secondary Endpoint Events: ≥3 events, %: (35.1) %
  Key Secondary Endpoint Events: ≥4 events, %: (42.9) %
  Primary Endpoint Events: Others, %: (35.0) %
  Primary Endpoint Events: ≥1 event, %: (43.9) %
  Primary Endpoint Events: ≥2 events, %: (39.2) %
  Primary Endpoint Events: ≥3 events, %: (35.3) %
  Primary Endpoint Events: ≥4 events, %: (27.9) %
[11]
  Cardiovascular Death, HR (95% CI): 0.79
  Non-fatal Cardiovascular Event, HR (95% CI): 0.68
[12]
  Cardiovascular Death, HR (95% CI): 0.79
  Non-fatal Cardiovascular Event, HR (95% CI): 0.68
[13]
  Cardiovascular Death, HR (95% CI): 0.80
  Non-fatal Cardiovascular Event, HR (95% CI): 0.67
[14]
  Cardiovascular Death, HR (95% CI): 0.80
  Non-fatal Cardiovascular Event, HR (95% CI): 0.66
Key secondary composite endpoint, after reduction, share of overall events in category
  Key secondary endpoint: fatal events, %: 45.0%
Key secondary composite endpoint, before reduction, share of overall events in category
  Key secondary endpoint: total events before reduction, %: 42.0%
[15]
  Key secondary composite endpoint, HR (95% CI): 0.74
  Primary composite endpoint, HR (95% CI): 0.75
[16]
  Key secondary composite endpoint, HR (95% CI): 0.74
  Primary composite endpoint, HR (95% CI): 0.75
[17]
  Key secondary composite endpoint, HR (95% CI): 0.74
  Primary composite endpoint, HR (95% CI): 0.76
[18]
  Key secondary composite endpoint, HR (95% CI): 0.74
  Primary composite endpoint, HR (95% CI): 0.76
[19]
  Key secondary composite endpoint, HR (95% CI): 0.75
  Primary composite endpoint, HR (95% CI): 0.68
[20]
  Key secondary composite endpoint, HR (95% CI): 0.75
  Primary composite endpoint, HR (95% CI): 0.68
[21]
  Key secondary composite endpoint, HR (95% CI): 0.75
  Primary composite endpoint, HR (95% CI): 0.69
[22]
  Key secondary composite endpoint, HR (95% CI): 0.75
  Primary composite endpoint, HR (95% CI): 0.69
[23]
  Key secondary composite endpoint, HR (95% CI): 0.79
  Primary composite endpoint, HR (95% CI): 0.70
[24]
  Key secondary composite endpoint, HR (95% CI): 0.79
  Primary composite endpoint, HR (95% CI): 0.69
[25]
  Key secondary composite endpoint, HR (95% CI): 0.79
  Primary composite endpoint, HR (95% CI): 0.70
[26]
  Key secondary composite endpoint, HR (95% CI): 0.79
  Primary composite endpoint, HR (95% CI): 0.69
Negative binomial model, Example 3
  Total primary endpoint events, rate ratio: 0.70
[27]
  Total key secondary composite endpoint events, HR (95% CI): 0.71
  Total primary composite endpoint events, RR (95% CI): 0.69
[28]
  Total key secondary composite endpoint events, RR (95% CI): 0.72
  Total primary composite endpoint events, RR (95% CI): 0.70
[29]
  Total key secondary composite endpoint events, RR (95% CI): 0.71
  Total primary composite endpoint events, RR (95% CI): 0.67
[30]
  Total key secondary composite endpoint events, RR (95% CI): 0.71
  Total primary composite endpoint events, RR (95% CI): 0.68
overall
  Total key secondary endpoint events, HR: 0.71
[31]
  Cardiovascular deaths that could be prevented: 1
  Coronary revascularizations that could be prevented: 8
  Episodes of unstable angina that could be prevented: 2
  Myocardial infarctions that could be prevented: 4
  Strokes that could be prevented: 1
[32]
  Cardiovascular deaths that could be prevented: 12
  Coronary revascularizations that could be prevented: 76
  Episodes of hospitalization for unstable angina that could be prevented: 16
  Myocardial infarctions that could be prevented: 42
  Strokes that could be prevented: 14
[33]
  Primary endpoint: fatal events, %: (45.0) %
  Primary endpoint: total events after reduction, %: (41.0) %
Primary prevention stratum
  Total key secondary endpoint events, HR: 0.71
Secondary prevention stratum
  Total key secondary endpoint events, HR: 0.70
[34]
  Key Secondary Endpoint Events, %: (42.0) %
  Primary Endpoint Events, %: (40.7) %
